Patent US20140154263A1, “Use of TAK1 Inhibitor to Achieve Glycemic Control in Mammals” (Connexios Life Sciences Pvt. Ltd., priority 2012, published 2014)

Legend:
[1] = system: 3T3 L1 cells; experiment: Insulin sensitivity in adipocytes (Western blot p-Akt Thr-308 / total Akt); type: cell-based; details: glucose and palmitate 48 hours, then 10 and 100 nM insulin 15 min, FIG. 2
Protocol: This was ascertained by treating 3T3 L1 cells with glucose and palmitate (GP) for 48 hours in the presence and absence of TAK-1 inhibitor. Cells were then stimulated with 10 and 100 nM insulin (I) for 15 min, following which they were taken up for Western blot analysis for p-Akt ([…]) and total Akt.

[2] = system: JNK; experiment: JNK activation in skeletal muscle cells; type: cell-based
From the text: (§1) Taken together, TAK-1 inhibition could lead to decreased JNK and NFkB signaling under metabolic overload and inflammation.

[3] = system: rat primary hepatocytes; experiment: Reactive oxygen species in rat primary hepatocytes; type: cell-based; details: glucose, palmitate and inflammatory cytokines, FIG. 8
From the text: Reactive oxygen species (ROS) are generated as metabolic byproducts, particularly as a byproduct of oxidative phosphorylation. Under normal conditions, the levels of ROS generated are low and tightly controlled, and can function as signaling intermediates.

[4] = system: skeletal muscle cells; experiment: Mitochondrial biogenesis in skeletal muscle cells (mtND1, mitochondrial DNA copy number, MEF2C); type: cell-based; details: FIG. 18
[5] = system: insulin gene, PDX1, IL1b, glucokinase (GCK) and Glut2 (slc2a2); experiment: Gene expression in islet beta cells under inflammatory conditions; type: cell-based, rat
[6] = system: JNK; experiment: JNK phosphorylation under inflammatory conditions in adipocytes; type: cell-based; details: in response to inflammatory cytokine, FIG. 1
[7] = system: 3T3F442A pre adipocytes; experiment: Adipogenesis (TG levels) under inflammatory cytokines; type: cell-based; details: differentiation with inflammatory cytokines, FIG. 3
Protocol: Experiments were performed in which inflammatory cytokines were added to 3T3F442A pre adipocytes (UD) and TG levels were estimated as a measure of adipogenesis. Differentiation was carried out in the presence and absence of TAK-1 inhibitor.

[8] = system: skeletal muscles; experiment: ROS levels in skeletal muscle cells; type: cell-based; details: different disease conditions, FIG. 17 C
From the text: (§2) Oxidative stress mediated by both ROS and RNS (NO) is known to impair mitochondrial function and induced insulin resistance in skeletal muscle (FIG. 17). Furthermore, it is also known that metabolic overload and inflammatory signal drives oxidative stress in skeletal muscles.

[9] = system: IkB; experiment: IkB level in skeletal muscle cells; type: cell-based; details: skeletal muscle cells under inflammatory conditions (Infl), FIG. 14
From the text: as §1

[10] = system: muscle cells; experiment: Mitochondrial activity of muscle cells (reduction of MTT); type: cell-based; details: inflammation and oxidative stress conditions, FIG. 18
[11] = system: rat islets; experiment: Glucose stimulated insulin secretion (GSIS) under inflammatory conditions; type: cell-based; details: inflammatory condition (Infl), FIG. 25
[12] = system: C2C12 myotubes; experiment: NO release from muscle cells; type: cell-based
From the text: as §2

[13] = system: 3T3F442A cells; experiment: Secreted adiponectin in adipocytes; type: cell-based; details: inflammation (inf) plus metabolic overload (pal), FIG. 4
From the text: Adiponectin is secreted by insulin sensitive mature adipocytes and positively modulates glucose and lipid metabolism in non adipose tissues such as liver, muscle etc. Increased adiponectin secretion is desirable and is correlated with whole body insulin sensitivity. Inflammation (inf) in the presence of metabolic overload (pal) caused a decrease in adiponectin secretion in 3T3F442A cells.

[14] = metabolic overload or inflammation

Question: For `COc1cc(O)c2c(c1)/C=C/C[C@H](O)[C@H](O)C(=O)/C=C\C[C@H](C)OC2=O` [(5Z)-7-Oxozeaenol], which “insulin sensitivity (p-Akt Thr-308 / total Akt)” value [1] is on record?
Answer: restored insulin sensitivity

Question: And the “activation of JNK” value ([2]; in response to inflammatory cytokines, FIG. 13)?
Answer: decreased activation of JNK

Question: And the “activation of JNK” value ([2]; in response to metabolic stress (palmitate overload))?
Answer: reduce activation of JNK

Question: What about the “intracellular ROS levels” value [3] of the same compound?
Answer: reduced ROS levels

Question: What about the “mitochondrial DNA copy number” value [4, 14] of the same compound?
Answer: increased mitochondrial DNA copy number

Question: What about the “muscle enriched transcription factor (MEF2C)” value [4, 14] of the same compound?
Answer: increased

Question: What about the “expression of mitochondrial genes such as mtND1” value ([4]; skeletal muscle cells) of the same compound?
Answer: up-regulate

Question: And the “inflammation induced IL1b expression” value ([5]; rat islet, FIG. 27)?
Answer: reduce inflammation induced IL1b expression

Question: And the “insulin gene and PDX1 expression” value ([5]; rat islets, under inflammation, FIG. 26)?
Answer: up-regulate

Question: And the “activation of JNK” value [6]?
Answer: decreased activation of JNK

Question: What about the “TG levels as a measure of adipogenesis” value [7] of the same compound?
Answer: partially restored

Question: What about the ROS levels [8] of the same compound?
Answer: reduced

Question: What about the “IkB level (NFkB pathway)” value [9] of the same compound?
Answer: increasing IkB level

Question: What about the “mitochondrial activity (reduction of MTT)” value [10] of the same compound?
Answer: increase mitochondrial activity

Question: And the “glucose stimulated insulin secretion (GSIS)” value [11]?
Answer: restored GSIS

Question: And the “inflammation induced NO release” value ([12]; C2C12 myotubes, FIG. 17 A)?
Answer: reduced inflammation induced NO release from C2C12 myotubes in a dose dependent manner

Question: What about the NO release ([12]; skeletal muscles, metabolic overload (high glucose and palmitate) and inflammatory conditions, FIG. 17 B) of the same compound?
Answer: reduced NO release

Question: And the “decrease in adiponectin secretion” value [13]?
Answer: partially inhibited
